In ChEMBL document CHEMBL4382228, “Small molecules as inhibitors of PCSK9: Current status and future challenges” (Eur J Med Chem, 2019):

Legend:
HepG2 [1] = assay: Inhibition of PCSK9 mRNA expression in human HepG2 cells by SYBR Green I dye-based qRT-PCR analysis; assay type: functional, cell-based
Mus musculus = assay: Decrease in cholesterol level in C57BL/6 mouse fed with high fat diet at 10 mg/kg, po administered daily for 5 days relative to control; assay type: functional; design: scale not given: the % may be the effect or the level left
80S Ribosome = assay: Binding affinity to 80S ribosome in human HuH7 cells expressing human C-terminal V5/6-His-tagged PCSK9 assessed as inhibition of PCSK9 secretion after 16 to 24 hrs by AlphaLISA method; assay type: cell-based; settings: huh-7
[2] = target: T1, Proprotein convertase subtilisin/kexin type 9 (Homo sapiens, UniProt Q8NBP7); assay: Inhibition of wild type His-tagged PCSK9 (unknown origin) binding to recombinant LDLR-AB domain (unknown origin) after 2 hrs by fluorescence assay
T1 sequence (Q8NBP7 31-152 limits assumed): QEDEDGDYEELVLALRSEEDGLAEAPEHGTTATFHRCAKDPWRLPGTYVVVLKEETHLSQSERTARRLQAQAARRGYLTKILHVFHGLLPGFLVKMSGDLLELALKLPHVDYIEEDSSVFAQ
T1 sequence (Q8NBP7 153-692 limits assumed): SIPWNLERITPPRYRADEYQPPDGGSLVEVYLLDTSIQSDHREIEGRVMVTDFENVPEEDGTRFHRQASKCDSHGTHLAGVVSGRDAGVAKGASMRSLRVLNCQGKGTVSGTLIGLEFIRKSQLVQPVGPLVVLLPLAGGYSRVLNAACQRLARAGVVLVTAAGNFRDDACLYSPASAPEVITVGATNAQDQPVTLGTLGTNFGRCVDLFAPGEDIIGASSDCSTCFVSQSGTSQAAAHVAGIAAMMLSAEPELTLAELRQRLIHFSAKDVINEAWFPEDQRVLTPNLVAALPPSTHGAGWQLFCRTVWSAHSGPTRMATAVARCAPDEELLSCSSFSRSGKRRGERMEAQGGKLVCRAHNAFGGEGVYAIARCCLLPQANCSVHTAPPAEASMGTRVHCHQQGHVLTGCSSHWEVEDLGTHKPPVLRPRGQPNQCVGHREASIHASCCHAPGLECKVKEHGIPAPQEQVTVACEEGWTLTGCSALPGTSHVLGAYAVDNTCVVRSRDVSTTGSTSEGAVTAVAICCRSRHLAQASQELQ

[3] = target: T1, Proprotein convertase subtilisin/kexin type 9; assay: Inhibition of PCSK9 in human HepG2 cells assessed as increase in LDL uptake after 24 hrs by fluorescence assay; assay type: cell-based
HepG2 [4] = assay: Inhibition of PCSK9 mRNA expression in human HepG2 cells at 20 uM after 24 hrs by qRT-PCR analysis relative to control; assay type: functional; settings: HepG2, 24 h
HepG2 [5] = assay: Inhibition of PCSK9 mRNA expression in human HepG2 cells after 24 hrs by SYBR Green I dye-based qRT-PCR analysis; assay type: functional, cell-based; settings: HepG2, 24 h
[6] = target: T1, Proprotein convertase subtilisin/kexin type 9; assay: Binding affinity to PCSK9 (unknown origin) by SPR assay
HepG2 [7] = assay: Inhibition of PCSK9 mRNA expression in human HepG2 cells after 24 hrs by qRT-PCR analysis; assay type: functional, cell-based; settings: HepG2, 24 h
Hepatocyte [8] = assay: Inhibition of PCSK9 mRNA expression in mouse primary hepatocytes at 2 uM after 24 hrs relative to control; assay type: functional
[9] = target: T1, Proprotein convertase subtilisin/kexin type 9; assay: Inhibition of human recombinant PCSK9 expressed in CHO-K1 cells assessed as alkaline phosphatase secretion incubated overnight and measured after 3 days by HTS assay; assay type: cell-based
[10] = target: T1, Proprotein convertase subtilisin/kexin type 9; assay: Inhibition of human recombinant full length ProLabel-tagged PCSK9 expressed in CHO-K1 cells incubated overnight and measured after 3 days by chemiluminescence assay; assay type: cell-based
[11] = target: T1, Proprotein convertase subtilisin/kexin type 9; assay: Inhibition of human recombinant full length ProLabel-tagged PCSK9 expressed in CHO-K1 cells incubated overnight and measured after 3 days by HTS assay; assay type: cell-based
CHO-K1 = assay: Cytotoxicity against CHOK1 cells expressing human recombinant full length ProLabel-tagged PCSK9 after overnight incubation by CellTiter blue assay; assay type: cell-based; settings: Cricetulus griseus
Hepatocyte [12] = assay: Inhibition of PCSK9 mRNA expression in mouse primary hepatocytes at 2.5 uM after 24 hrs relative to control; assay type: functional
Huh-7 [13] = assay: Increase in LDLR protein expression in human HuH7 cells at 2 uM after 24 hrs by immunoblotting assay relative to control; assay type: functional
Huh-7 [14] = assay: Increase in LDLR mRNA expression in human HuH7 cells at 2 uM after 24 hrs by qRT-PCR assay relative to control; assay type: functional
Huh-7 [15] = assay: Inhibition of PCSK9 mRNA expression in human HuH7 cells at 2 uM after 24 hrs by qRT-PCR assay relative to control; assay type: functional; settings: Huh-7, 24 h

Nc1ncnc2c1ncn2[C@@H]1O[C@H](CO)[C@@H](O)[C@H]1O [ADENOSINE]
IC50 (HepG2 [1]): 18.5 µM

COc1cc2c(c(O)c1O)COC2=O
IC50 (HepG2 [1]): 7.18 µM

CCN(CC)C(=O)c1ccc(NC(=O)CSc2nnc(-c3cccs3)n2C2CC2)cc1
Activity (Mus musculus): 20 - 38%

O=C(c1ccc(-n2nnc3cccnc32)cc1)N(c1ncccc1Cl)[C@@H]1CCCNC1
IC50 (80S Ribosome): 0.3 µM

Cn1cccc1-c1ccc(-c2ccc(-c3ccc(-c4ccccc4)n3C)n2C)n1C
IC50 [2]: 11.2 µM | EC50 [3]: 6.04 µM

COc1cc(O)cc2c1C(=O)[C@H](O)[C@@H](c1ccccc1O)O2
inhibition at 20 µM (HepG2 [4]): 84.4%

C/C=C(/C)C(=O)Oc1c2c(cc3c1-c1c(cc(OC)c(OC)c1OC)C[C@](C)(O)[C@@H](C)C3)OCO2
IC50 (HepG2 [5]): 0.36 µM

CC(C)C[C@H](C(=O)N1CCN([C@@H](CC#N)C(=O)N[C@@H](CCCNC(=N)N)C(=O)N[C@H]2CCOC2=O)CC1)N1C(=O)N[C@@H](CC(=O)O)C1=O
Kd [6]: 35.8 µM

CC(C)=CCc1c(O)cc(-c2cc3ccc(O)cc3o2)cc1O [MORACIN C]
IC50 (HepG2 [5]): 16.8 µM

CC(C)C[C@H](C(=O)N1CCN([C@@H](CC(N)=O)C(=O)N[C@@H](CCCNC(=N)N)C(=O)N[C@H]2CCOC2=O)CC1)N1C(=O)N[C@@H](CC(=O)O)C1=O
Kd [6]: 24.8 µM

CN1C(=O)c2cc(NC(=O)c3ccc(C(F)(F)F)cc3)ccc2OC[C@@H]2O[C@H](CC(=O)NC3Cc4ccccc4C3)CC[C@@H]21
EC50 (HepG2 [7]): 0.36 µM

Cc1sc2c(c1C)C(c1ccccc1)=N[C@@H](CC(=O)OC(C)(C)C)c1nnc(C)n1-2
inhibition at 2 µM (Hepatocyte [8]): > 90%

COc1cccc(O)c1-c1cc(=O)c2c(O)c(OC)c(OC)c(OC)c2o1 [SKULLCAPFLAVONE II]
inhibition at 20 µM (HepG2 [4]): 42.4%

Cc1cc(C(=O)C2=C(O)C(=O)N(CCCN3CCOCC3)C2c2ccncc2)ccc1OCc1ccccc1 (configuration not stated)
Activity (Mus musculus): 20 - 38%

COc1ccc(CCC(=O)N(c2nccc3ccccc23)[C@@H]2CCCNC2)cc1
IC50 [9]: > 10 µM | IC50 [10]: < 10 µM | IC50 [11]: 4.8 µM | IC50 (CHO-K1): > 10 µM

CC(C)C[C@@H](C(=O)N[C@H](CCCCN)C(=O)N[C@H]1CCOC1=O)N1CCN(C(=O)[C@H](CS)N2C(=O)N[C@H](CC(N)=O)C2=O)CC1
Kd [6]: 41.2 µM

CC(=O)Nc1ccc(C(=O)N2CCN(c3ccc(C)c(Cl)c3)CC2c2ccccc2)cc1 (configuration not stated)
Activity (Mus musculus): 20 - 38%

COc1c2c(cc3c1-c1c(cc4c(c1OC)OCO4)C[C@H](C)[C@H](C)C3)OCO2 [SCHISANDRIN C]
IC50 (HepG2 [5]): 3.85 µM

COC(=O)c1c(C)cc(O[C@@H]2O[C@H](CO)[C@@H](O)[C@H]2O)c(OC)c1O
IC50 (HepG2 [1]): 20.1 µM

O=C(Nc1ccc(-c2nc3ccccc3o2)cc1)c1ccc(NC(=O)c2cc3ccccc3o2)cc1
Activity (Mus musculus): 20 - 38%

COc1cc2c(c(OC)c1OC)-c1c(cc3c(c1OC)OCO3)C[C@@H](C)[C@@](C)(O)C2
IC50 (HepG2 [5]): 1.1 µM

Cc1ccc(N2CCN(C(=O)c3ccc(NC(N)=O)cc3)C(c3ccccc3)C2)cc1Cl (configuration not stated)
Activity (Mus musculus): 20 - 38%

COc1cc2c(cc1-c1c(C)noc1C)ncc1[nH]c(=O)n([C@H](C)c3ccccn3)c12
inhibition at 2.5 µM (Hepatocyte [12]): > 90%

COc1cc([C@@H]2O[C@H](c3cc(O)c(OC)c(OC)c3)[C@@H](C)[C@@H]2C)ccc1O
IC50 (HepG2 [5]): 3.15 µM

O=c1c(O[C@@H]2O[C@H](CO)[C@@H](O)[C@H](O)[C@H]2O)c(-c2ccc(O)c(O)c2)oc2cc(O)cc(O)c12 [ISOQUERCETIN]
Activity (Huh-7 [13]): 300 - 400% | Activity (Huh-7 [14]): 60% | inhibition at 2 µM (Huh-7 [15]): 20 to 30%

CC(C)[C@@H](C)/C=C/[C@@H](C)[C@H]1CCC2=C3[C@@H](O)[C@@H]4O[C@@]45C[C@@H](O)CC[C@]5(C)[C@H]3CC[C@@]21C
IC50 (HepG2 [1]): 8.23 µM
